Experimental data reported in US20050054559A1, “Compounds for sustained release of orally delivered drugs” (priority 2000, published 2005).
Square brackets hold non-standard residues; d marks the D form. Peptide text beside a SMILES is read from it. * marks the point of attachment. Bn = c1ccc(C*)cc1

Assays:
[1] = target: T1, IBAT (Homo sapiens, UniProt Q12908); assay: Electrogenic transport in Xenopus oocytes expressing IBAT; format: cell-based; settings: for % Max. (GDC): relative to glycodeoxycholate
Description: RNA preparation: Human IBAT and LBAT Transporter cDNAs were subcloned into a modified pGEM plasmid that contains 5′ and 3′ untranslated sequences from the Xenopus β-actin gene. These sequences increase RNA stability and protein expression. Plasmid cDNA was linearized and used as template for in vitro transcription (Epicentre Technologies transcription kit, 4:1 methylated:non-methylated GTP).
(§1) Xenopus oocyte isolation. Xenopus laevis frogs were anesthetized by immersion in Tricaine ([…] in deionized water) for 15 min. Oocytes were removed and digested in frog ringer solution (90 mM NaCl, 2 mM KCl, 1 mM MgCl2, 10 mM NaHEPES, pH 7.45, no CaCl2) with 1 mg/mL collagenase (Worthington Type 3) for 80-100 min with shaking. The oocytes were washed 6 times, and the buffer changed to frog ringer solution containing CaCl2 (1.8 mM). Remaining follicle cells were removed if necessary. Cells were incubated at 16° C., and each oocyte injected with […] RNA in […] solution.
(§2) Electrophysiology measurements. Transport currents were measured 2-14 days after injection, using a standard two-electrode electrophysiology set-up (Geneclamp 500 amplifier, Digidata 1320/PCLAMP software and ADInstruments hardware and software were used for signal acquisition). Electrodes ([…]) were microfabricated using a Sutter Instrument puller and filled with 3M KCl. The bath was directly grounded (transporter currents were less than 0.3 μA). Bath flow was controlled by an automated perfusion system (ALA Scientific Instruments, solenoid valves).
For transporter pharmacology, oocytes were clamped at −60 to −90 mV, and continuous current measurements acquired using PowerLab Software and an ADInstruments digitizer. Current signals were lowpass filtered at 20 Hz and acquired at 4-8 Hz. All bath and drug-containing solutions were frog ringers solution containing CaCl2. Drugs were applied for 10-30 seconds until the induced current reached a new steady-state level, followed by a control solution until baseline currents returned to levels that preceded drug application. The difference current (baseline subtracted from peak current during drug application) reflected the net movement of charge resulting from electrogenic transport and was directly proportional to tranport rate. Recordings were made from a single oocyte for up to 60 min, enabling 30-40 separate compounds to be tested per oocyte. […]. Using this normalization procedure Vmax (i.e. maximal induced current) for different compounds tested on different oocytes could be compared.

[2] = target: T1, IBAT; assay: Inhibition of radiolabeled taurocholate uptake in IBAT-transfected CHO cells; format: cell-based; set-up: expressed in transfected cells; host or cells: CHO cells; settings: radiolabeled competition assay in transporter-expressing CHO cells
Protocol: (§3) CHO cells transfected with either the IBAT or LBAT transporter were seeded into 96-well microtiter plates at 100,000 cells/well in 100 μL DMEM containing 10% serum, glutamine and Penstrep. After overnight incubation the media was removed and test compound (25 μL) added at 2× the final desired concentration. Tritiated taurocholate (50,000 CPM/well) was diluted with cold substrate to a final concentration of 5 μM and 25 μL/well of this mixture was added to the plate. After incubating for 1 h at room temperature the solution was removed and the plate washed 4× with PBS at 4° C. 200 μL/well of scintillant is added and the plate then read in a Wallac microbeta counter. The inhibition data is processed by standard methods to calculate an inhibition constant Ki for the test compound.

[3] = target: T2, LBAT (Homo sapiens, UniProt Q14973); assay: Inhibition of radiolabeled taurocholate uptake in LBAT-transfected CHO cells; format: cell-based; settings: radiolabeled competition assay in transporter-expressing CHO cells
T2 construct: expressed in transfected cells; host or cells: CHO cells
Protocol: as §3

[4] = target: T3, hPEPT2 (Homo sapiens, UniProt Q16348); assay: Electrogenic transport in Xenopus oocytes expressing hPEPT2; format: cell-based; settings: test compound 1 mM, relative to Gly-Sar
T3 sequence (Q16348 1-729): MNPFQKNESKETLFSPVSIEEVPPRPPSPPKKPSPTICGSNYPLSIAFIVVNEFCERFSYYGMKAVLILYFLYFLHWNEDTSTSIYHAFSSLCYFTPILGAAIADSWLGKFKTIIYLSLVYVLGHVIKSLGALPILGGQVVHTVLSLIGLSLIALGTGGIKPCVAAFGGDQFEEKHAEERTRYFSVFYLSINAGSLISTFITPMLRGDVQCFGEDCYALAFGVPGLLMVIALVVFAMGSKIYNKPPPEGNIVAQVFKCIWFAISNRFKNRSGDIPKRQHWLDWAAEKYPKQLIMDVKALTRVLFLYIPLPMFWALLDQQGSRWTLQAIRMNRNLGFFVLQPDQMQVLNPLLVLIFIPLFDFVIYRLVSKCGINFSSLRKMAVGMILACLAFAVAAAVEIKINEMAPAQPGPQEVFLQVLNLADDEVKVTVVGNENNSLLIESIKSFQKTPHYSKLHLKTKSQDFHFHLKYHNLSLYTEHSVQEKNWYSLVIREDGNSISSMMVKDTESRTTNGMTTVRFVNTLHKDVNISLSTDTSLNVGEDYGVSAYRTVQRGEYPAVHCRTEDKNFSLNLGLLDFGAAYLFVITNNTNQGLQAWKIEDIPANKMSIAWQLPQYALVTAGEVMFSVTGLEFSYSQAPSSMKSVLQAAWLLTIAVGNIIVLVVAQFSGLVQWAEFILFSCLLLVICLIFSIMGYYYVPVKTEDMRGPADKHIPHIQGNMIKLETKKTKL
Description: (§4) RNA preparation: Rat and human PEPT1 and PEPT2 transporter cDNAs were subcloned into a modified pGEM plasmid that contains 5′ and 3′ untranslated sequences from the Xenopus β-actin gene. These sequences increase RNA stability and protein expression. Plasmid cDNA was linearized and used as template for in vitro transcription (Epicentre Technologies transcription kit, 4:1 methylated:non-methylated GTP).
as §1, §2
(§5) For transporter pharmacology, oocytes were clamped at −60 to −90 mV, and continuous current measurements acquired using PowerLab Software and an ADInstruments digitizer. Current signals were lowpass filtered at 20 Hz and acquired at 4-8 Hz. All bath and drug-containing solutions were frog ringers solution containing CaCl2. Drugs were applied for 10-30 seconds until the induced current reached a new steady-state level, followed by a control solution until baseline currents returned to levels that preceded drug application. The difference current (baseline subtracted from peak current during drug application) reflected the net movement of charge resulting from electrogenic transport and was directly proportional to tranport rate. Recordings were made from a single oocyte for up to 60 min, enabling 30-40 separate compounds to be tested per oocyte. […] To compare results between oocytes expressing different levels of transport activity, a saturating concentration of glycyl-sarcosine (1 mM) was used as a common reference to normalize results from test compounds. Using this normalization procedure Vmax (i.e. maximal induced current) for different compounds tested on different oocytes could be compared.

[5] = target: T4, hPEPT1 (Homo sapiens, UniProt P46059); assay: Electrogenic transport in Xenopus oocytes expressing hPEPT1; format: cell-based; settings: for % Max. (Gly-Sar): hPEPT1-expressing oocytes, test compound 1 mM, relative to Gly-Sar; for transport by hPEPT1 (in words): summary of Example 34
T4 sequence (P46059 1-708): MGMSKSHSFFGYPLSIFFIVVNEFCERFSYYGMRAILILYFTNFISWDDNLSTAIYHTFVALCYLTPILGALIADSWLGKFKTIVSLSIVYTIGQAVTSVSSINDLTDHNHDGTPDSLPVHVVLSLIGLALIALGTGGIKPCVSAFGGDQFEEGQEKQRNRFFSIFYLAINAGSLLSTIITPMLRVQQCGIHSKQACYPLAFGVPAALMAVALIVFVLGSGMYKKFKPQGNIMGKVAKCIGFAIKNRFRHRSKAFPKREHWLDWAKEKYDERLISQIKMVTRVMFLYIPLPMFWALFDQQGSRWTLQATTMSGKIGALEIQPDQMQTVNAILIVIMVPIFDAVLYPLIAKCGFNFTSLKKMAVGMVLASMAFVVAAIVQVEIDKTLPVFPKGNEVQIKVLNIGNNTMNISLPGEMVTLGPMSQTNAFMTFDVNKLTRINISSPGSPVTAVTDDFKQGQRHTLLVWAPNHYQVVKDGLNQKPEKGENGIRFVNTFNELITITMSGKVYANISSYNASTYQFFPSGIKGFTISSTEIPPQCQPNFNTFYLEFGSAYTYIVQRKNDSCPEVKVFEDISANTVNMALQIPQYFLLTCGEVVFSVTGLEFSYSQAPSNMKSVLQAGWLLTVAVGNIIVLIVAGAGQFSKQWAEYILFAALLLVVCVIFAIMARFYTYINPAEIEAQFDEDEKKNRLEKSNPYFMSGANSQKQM
Description: as §4, §1, §2, §5

[6] = Pharmacokinetics in rats following oral administration (Examples 38 and 40); settings: male, Sprague-Dawley, rat, in vivo, 25 mg/kg
Protocol: (§6) The pharmacokinetics of the prodrug (4) were examined in rats. Three groups of four male Sprague-Dawley rats (approx 200 g) with jugular cannulae each received one of the following treatments: A) a single bolus intravenous injection of gabapentin (25 mg/kg, as a solution in water); B) a single oral dose of gabapentin (25 mg/kg, as a solution in water) administered by oral gavage; C) a single oral dose of (4) (85.25 mg/kg, as a solution in water) administered by oral gavage. Animals were fasted overnight prior to dosing and until 4 hours post-dosing. Serial blood samples were obtained over 24 hours following dosing and blood was processed for plasma by centrifugation. Plasma samples were stored at −80° C. until analyzed. Concentrations of (4) or gabapentin in plasma samples were determined by LC/MS/MS as described in Example 35. Plasma (50 μL) was precipitated by addition of […] of methanol and supernatent was injected directly onto the LC/MS/MS system. The method was linear for gabapentin over the concentration range 0.001 to 20 ng/mL and for (4) over the concentration range 0.01 to 10 ng/mL.
as §6, with “prodrug Cholyl-Phe-Gabapentin (7g)” for “prodrug (4)”, “of (7g) (103.5” for “of (4) (85.25”, “of (7g)” for “of (4)”, “or (2)” for “or gabapentin”, “described above.” for “described in Example 35.”, “system.” for “system. The method was linear for gabapentin over the concentration range 0.001 to 20 ng/mL and for (4) over the concentration range 0.01 to 10 ng/mL.”

T1 sequence (Q12908 whole entry): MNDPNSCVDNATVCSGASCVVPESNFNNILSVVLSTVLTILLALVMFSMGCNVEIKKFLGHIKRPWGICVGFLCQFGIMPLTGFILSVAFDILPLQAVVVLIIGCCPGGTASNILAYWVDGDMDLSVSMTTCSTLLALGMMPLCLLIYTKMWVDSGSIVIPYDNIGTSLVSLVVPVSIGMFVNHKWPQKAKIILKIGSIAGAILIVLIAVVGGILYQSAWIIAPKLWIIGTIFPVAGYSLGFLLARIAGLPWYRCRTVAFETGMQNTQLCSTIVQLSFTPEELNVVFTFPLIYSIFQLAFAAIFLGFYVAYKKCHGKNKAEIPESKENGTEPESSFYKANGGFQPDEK
T2 sequence (Q14973 whole entry): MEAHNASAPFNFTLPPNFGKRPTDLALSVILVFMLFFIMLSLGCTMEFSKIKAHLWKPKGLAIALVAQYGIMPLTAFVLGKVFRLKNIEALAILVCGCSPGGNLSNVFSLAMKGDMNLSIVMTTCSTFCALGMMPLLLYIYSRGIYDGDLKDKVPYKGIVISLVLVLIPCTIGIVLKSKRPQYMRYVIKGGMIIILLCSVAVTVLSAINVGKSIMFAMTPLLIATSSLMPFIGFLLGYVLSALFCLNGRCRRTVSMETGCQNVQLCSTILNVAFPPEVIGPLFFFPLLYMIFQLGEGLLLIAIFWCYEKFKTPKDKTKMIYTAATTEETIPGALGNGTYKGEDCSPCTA

CC(CCC(=O)NCC(=O)NCC1(CC(=O)O)CCCCC1)C1CCC2C3C(O)CC4CC(O)CCC4(C)C3CC(O)C12C (stereo not shown) [(7a), Cholyl-Gly-Gabapentin]
% Max. (GDC) [1]: 67%

CC(CCC(=O)NC(Cc1ccccc1)C(=O)NCC1(CC(=O)O)CCCCC1)C1CCC2C3C(O)CC4CC(O)CCC4(C)C3CC(O)C12C (stereo not shown) [(7g), Cholyl-Phe-Gabapentin]
IC50 [2]: 92 µM | IC50 [3]: 0.5 µM | EC50 [1]: 140 µM | % Max. (GDC) [1]: 28%

CC(CCC(=O)NC(Cc1ccc(O)c(O)c1)C(=O)O)C1CCC2C3C(O)CC4CC(O)CCC4(C)C3CC(O)C12C (stereo not shown) [(20), Cholyl-Dopa]
IC50 [2]: 83 µM | IC50 [3]: 5 µM | % Max. (GDC) [1]: 0%

N[C@@H](CCC(=O)O)C(=O)N[C@@H](CSCc1ccccc1)C(=O)O [(27), H-Glu-Cys(Bzl)-OH] (H-Glu-Cys(Bn)-OH)
% Max. (Gly-Sar) [4]: 56% | % Max. (Gly-Sar) [5]: 41% | transport by hPEPT1 (in words) [5]: efficient substrates

N[C@@H](CCC(=O)O)C(=O)N[C@@H](COCc1ccccc1)C(=O)O [(28), H-Glu-Ser(Bzl)-OH] (H-Glu-Ser(Bn)-OH)
% Max. (Gly-Sar) [4]: 82% | % Max. (Gly-Sar) [5]: 58% | transport by hPEPT1 (in words) [5]: efficient substrates

N[C@@H](CC(=O)O)C(=O)N[C@@H](CSCc1ccccc1)C(=O)O [(30), H-Asp-Cys(Bzl)-OH] (H-Asp-Cys(Bn)-OH)
% Max. (Gly-Sar) [4]: 78% | % Max. (Gly-Sar) [5]: 55% | transport by hPEPT1 (in words) [5]: efficient substrates

N[C@@H](CCC(=O)O)C(=O)N[C@H](CSCc1ccccc1)C(=O)O [(34), H-Glu-D-Cys(Bzl)-OH] (H-Glu-[dC](Bn)-OH)
% Max. (Gly-Sar) [4]: 0% | % Max. (Gly-Sar) [5]: 1%

N[C@@H](CCC(=O)O)C(=O)N[C@H](COCc1ccccc1)C(=O)O [(35), H-Glu-D-Ser(Bzl)-OH] (H-Glu-[dS](Bn)-OH)
% Max. (Gly-Sar) [4]: 0% | % Max. (Gly-Sar) [5]: 1%

N[C@@H](CC(=O)O)C(=O)N[C@H](CSCc1ccccc1)C(=O)O [(36), H-Asp-D-Cys(Bzl)-OH] (H-Asp-[dC](Bn)-OH)
% Max. (Gly-Sar) [4]: 0% | % Max. (Gly-Sar) [5]: 2%

N[C@@H](CC(=O)O)C(=O)N[C@H](COCc1ccccc1)C(=O)O [(37), H-Asp-D-Ser(Bzl)-OH] (H-Asp-[dS](Bn)-OH)
% Max. (Gly-Sar) [4]: 0% | % Max. (Gly-Sar) [5]: 1%

Cl.NCC1(CC(=O)O)CCCCC1 [gabapentin, 1-aminomethyl-1-cyclohexaneacetic acid hydrochloride, reference compound]
bioavailability [6]: 87 ± 18% | Tmax ([6]; po): 2.8 ± 2.5 h | half-life ([6]; po): 2.4 ± 0.5 h
